Laboratory results as given in US8227408B2, “Leptin as an anti-amyloidogenic biologic and methods for delaying the onset and reducing Alzheimer's disease-like pathology” (Neurotez, Inc., priority 2005, dated 2012).

B1: RAP: Receptor Associated Protein, antagonist of a number of lipoprotein receptors (protein)
chain: YSREKNQPKPSPKRESGEEFRMEKLNQLWEKAQRLHLPPVRLAELHADLKIQERDELAWKKLKLDGLDEDGEKEARLIRNLNVILAKYGLDGKKDARQVTSNSLSGTQEDGLDDPRLEKLWHKAKTSGKFSGEELDKLWREFLHHKEKVHEYNVLLETLSRTEEIHENVISPSDLSDIKGSVLHSRHTELKEKLRSINQGLDRLRRVSHQGYSTEAEFEEPRVIDLWDLAQSANLTDKELEAFREELKHFEAKIEKHNHYQKQLEIAHEKLRHAESVGDGERVSRSREKHALLEGRTKELGYTVKKHLQDLSGRISRARHNEL
B2: Ciliary neurotrophic factor: member of the gp130 family of cytokines regulating survival and differentiation of neurons (protein, UniProt P26441 1-200, looked up)
Ciliary neurotrophic factor: MAFTEHSPLTPHRRDLCSRSIWLARKIRSDLTALTESYVKHQGLNKNINLDSADGMPVASTDQWSELTEAERLQENLQAYRTFHVLLARLLEDQQVHFTPTEGDFHQAIHTLLLQVAAFAYQIEELMILLEYKIPRNEADGMPINVGDGGLFEKKLWGLKVLQELSQWTVRSIHDLRFISSHQTGIPARGSHYIANNKKM

Assays:
[1] = tested on: Neuro2a cells stably transfected with hyg-sa134 (SEAP-APP); test: Aβ production by Neuro2a cells stably transfected with hyg-sa134 (total Aβ in media, sandwich ELISA); format: cell-based, mouse; conditions: for Aβ production / levels of Aβ in the media (in words): 2 or 5 h treatment; for Neuro2a/SEAP-APP Aβ(% control): total Aβ in conditioned media, concentration (TOFA 200 μM, cerulenin 200 μM, etomoxir 40 μM, peptide YY (3-36) 25 μM, CNTF 25 μM, leptin 400 ng/ml), mean ± SEM, 4 experiments, NS = non-significant; for Neuro2a/SEAP-APP Aβ(% control) / Aβ production (in words): 5 h
Method: (§1) Neuro2a (mouse neuroblastoma) stably transfected with hyg-sa134, a pcDNA3.1/Hygro plasmid (Invitrogen, CA) modified to express a fusion protein of secreted alkaline phosphatase (SEAP) and a fragment of APP consisting of the C-terminal 134 amino acids (“CAPP134”) (SEQ ID NO:10) were maintained in culture as described ([…]) in the presence of 400 μg/ml of hygromycin. SEQ ID NO: 11 is the DNA sequence of the entire hygsa134 vector, which was derived from the pcDNA3.1/Hygro vector by genetic manipulation to insert the DNA sequences for SEAP and CAPP134. The SEAP-CAPP cDNA insert from hyg-sa134 was also subcloned into an adenoviral vector using the Adeno Vator system (Qbiogene, Calif.). The DNA sequence for SEAP (corresponding to nucleotides 981-2441 of hyg-sa134) (SEQ ID NO: 9) is located 5′ to the DNA sequence (SEQ ID NO: 12) coding for CAPP134 (SEQ ID NO: 10).
(§2) SY5Y and hyg-sa134-Neuro2a cells were treated at 80% confluency (see below). Primary neural cultures from mouse embryos were allowed to grow for 6-12 days following plating and prior to viral infection and treatments.
About 5 μg/ml or about 10 μg/ml water-soluble cholesterol was added to cultures for 2 or 5 hours. Water soluble cholesterol (Sigma-Aldrich, MO) is a solution made of cholesterol balanced with cyclodextrin CDX (40 mg cholesterol per gr CDX). For comparison, cultures were treated with the equivalent amount of the resin alone, which leads to depletion of cholesterol in the cultures (Simons et al., Proc Natl Acad Sci USA. 95:6460-4 (1998)).
(§3) About 100 ng/ml or about 400 ng/ml leptin (Harbor-UCLA, CA), was added in cell culture medium for 2 or 5 h. Cells were approximately 80% confluent at the time of treatment. Peptide YY (3-36) (Phoenix Pharmaceuticals, Inc., CA), and CNTF (Sigma-Aldrich, Mo.) were added at about 25 μM or 150 μM for the same incubation periods. TOFA, etomoxir (Research Biochemicals International, MA) and cerulenin (Sigma-Aldrich, Mo.) were used as described below.
(§4) For the determination of Aβ peptide several methodologies also were used. SY5Y cells in culture were metabolically labeled with ^35S-[Met] as described (Figueiredo-Pereira et al. J Neurochem. 72:1417-22 (1999)), followed by immunoprecipitation, resolution of the immunoprecipitates on SDS-PAGE, autoradiography, and densitometric analysis of the autoradiogram. Neuro2a cells were stably transfected with hyg-sa134 (K. Sambamurti, S. Carolina Medical Center, SC) and Aβ40 (SEQ ID NO: 4) plus Aβ42 (SEQ ID NO: 5) plus Aβ43 (SEQ ID NO: 6) (Total Aβ) in the medium then was quantified by sandwich ELISAs developed with 4G8 and 6 ε10 monoclonal antibodies (Signet, Mass.) as described (Figueiredo-Pereira et al., J Neurochem. 72:1417-22 (1999)). Commercially available ELISA kits (KMI Diagnostics, MN) were used for the separate determination of Aβ40 (SEQ ID NO:4) and Aβ42/43 (SEQ ID NO:5/SEQ ID NO:6) in formic acid extracts of mice brains. Flotillin was detected using monoclonal anti-flotillin-1 antibodies (BD Biosciences, CA). Actin was detected using monoclonal anti-actin antibodies (Research Diagnostics, Inc, NJ).
Human (SYSY) or mouse neuroblastoma cell-lines (Neuro2a) commonly are used to study amyloid β metabolism in vitro. Neuro2a cells are stably transfected with hyg-sa134 (SEQ ID NO: 11), a plasmid driving the expression of a recombinant fusion protein containing the human C-terminal fragment of APP of about 134 amino acids, CAPP134 (SEQ ID NO: 10). Here, 5Y5Y or Neuro2a cultures were treated for 2 or 5 h with about 100 ng/ml or about 400 ng/ml leptin (FIG. 4a, 4b). Similarly, primary neurons from embryonic rat brain, infected with an adenovirus to direct the expression of CAPP134 (SEQ ID NO:10) also were treated according to the same regimen. […]

SY5Y cells [2] = test: Aβ production by SY5Y cells; format: cell-based, human; conditions: total Aβ in conditioned media, 5 h; concentration (TOFA 200 μM, cerulenin 200 μM, etomoxir 40 μM, peptide YY (3-36) 25 μM, CNTF 25 μM, leptin 400 ng/ml); mean ± SEM; NS = non-significant
From the text: (§5) Cell cultures, Treatments, Antibodies and Immunoassays. SY5Y cells (human neuroblastoma) were maintained in culture as described (Johnsingh et al., FEBS Lett. 465:53-8 (2000)). Primary neural cultures were obtained from ε16 rat embryonic cortex, as described (Shimoda et al., 1992. Brain Res. 586:319-31 (1992)). These were either grown as mixed cultures (Johnsingh et al., FEBS Lett. 465:53-8 (2000)) or grown under conditions that favor the isolation and proliferation of astrocytes (Takeshima et al., J Neurosci. 14:4769-79 (1994)).
as §2, §3, §4
(§6) Human (SYSY) or mouse neuroblastoma cell-lines (Neuro2a) commonly are used to study amyloid β metabolism in vitro. Neuro2a cells are stably transfected with hyg-sa134 (SEQ ID NO: 11), a plasmid driving the expression of a recombinant fusion protein containing the human C-terminal fragment of APP of about 134 amino acids, CAPP134 (SEQ ID NO: 10). Here, 5Y5Y or Neuro2a cultures were treated for 2 or 5 h with about 100 ng/ml or about 400 ng/ml leptin (FIG. 4a, 4b). Similarly, primary neurons from embryonic rat brain, infected with an adenovirus to direct the expression of CAPP134 (SEQ ID NO:10) also were treated according to the same regimen.

[3] = tested on: primary embryonic rat neurons infected with adenovirus; test: Aβ production by primary embryonic rat neurons infected with adenovirus (SEAP-APP); format: cell-based; conditions: total Aβ in conditioned media, 5 h; concentration (TOFA 200 μM, cerulenin 200 μM, etomoxir 40 μM, peptide YY (3-36) 25 μM, CNTF 25 μM, leptin 400 ng/ml); mean ± SEM; NS = non-significant
From the text: as §5, §1, §2, §6

SY5Y cells [4] = test: 125I-Aβ uptake by SY5Y cells (apoE-dependent); format: cell-based, human; conditions: RAP 1 μM added together with Aβ or the Aβ/apoE complex
Method: Preparation of ApoE and binding with ^125I-Aβ. ApoE was isolated from the conditioned media of human embryonic kidney (HEK-293) cells stably-transfected with human apoE (having the ε3 allele or the ε4 allele) cDNA (Tezapsidis et al., FASEB J. 17:1322-1324 (2003)). These preparations, while usually poor in lipid, are fully functional for uptake experiments. ApoE then was pre-incubated with ^125I-Aβ overnight at 37° C. (Aβ/ApoE: 1/50 w/w) as described (Tezapsidis et al., FASEB J. 17:1322-1324 (2003)).
Aβ-uptake by SY5Y cells. Human ^125I-Aβ (iodinated at Tyr-10, Amersham Biosciences, IM 294) uptake was measured following addition of 0.1 nM ^125I-Aβ40 (SEQ ID NO: 4) to confluent SY5Y cells (60,000 cpm/ml) in the presence or absence of 100 ng/ml or 400 ng/ml leptin also included in a 24 h pre-incubation period. ^125I-Aβ was either added alone or was previously incubated with apoε3. In controls, Receptor Associated Protein (“RAP”, 1 μM) was added together with Aβ or the Aβ/apoE complex. RAP is an antagonist of a number of lipoprotein receptors (LaDu et al., Neurochem Int. 39:427-34 (2001)). After 24 h, the media were collected and subjected to scintillation counting for γ-Iradiation (Kang et al., 2000. J Clin Invest. 106:1159-66 (2000)). The amount of radioactivity was measured in both the trichloroacetic acid (10%) TCA pellets (representing intact Aβ) and the corresponding supernatants (representing degraded Aβ). 96.5±8.2% (mean±s.e.m., n=4 experiments, triplicate determinations) of the radioactivity found in the medium could be recovered in the TCA pellet and represented intact or oligomeric Aβ (not shown), when Aβ was pre-incubated with apoE.
The amount of TCA-precipitable radioactivity in the soluble fraction of cell lysates was compared to that in the total lysates, the ratio of which was typically about 0.8 to about 0.9 (not shown), to further verify that radioactivity was reduced in the media as a reflection of Aβ uptake by the cells, rather than due to non-specific binding to the extracellular surface of membranes or oligomerization/aggregation of Aβ.
In panel (a), Aβ uptake was measured in SY5Y cells following their treatment at 0 ng/ml, 100 ng/ml or 400 ng/ml leptin. Uptake also was measured in cells previously transfected with antisense DNA for PS1 as described (Tezapsidis et al., FASEB J. 17:1322-1324(2003)) (black). Uptake is expressed as the percentage of that observed with Aβ pre-incubated with apoε3 (medium gray) in the absence of leptin (first set of columns). […] Leptin induced a dose-dependent increase in Aβ uptake with a preference for apoε3 (medium gray) over apoε4 (light gray). In panel (b), SY5Y cells were pre-treated with […] cholesterol (+Chol) or normal medium (−Chol). Then Aβ uptake was measured following its preincubation with apoε3 (ε3) or apoε4 (ε4) in the absence (black) or the presence (gray) of about 400 ng/ml leptin. Cells were more resistant to taking-up Aβ when loaded with cholesterol. […] In panel (c), SY5Y cells were transiently transfected with SREBP-1 or SREBP-2 cDNA or an empty vector (Control). Then Aβ was measured in the medium by ELISAs (Figueiredo-Pereira et al., J Neurochem. 72:1417-22 (1999)) following treatment with (+) or without (−) leptin. […] In panel (d), Aβ uptake was measured in SY5Y cells prepared as in panel (c). Uptake was performed using Aβ/apoε3 complexes.

[5] = 25 μM (equimolar concentrations), Table 1 cells
[6] = higher (150 μM) concentrations, not shown

| Molecule | Aβ production / levels of Aβ in the media (in words) [1] | Neuro2a/SEAP-APP Aβ(% control) [1] | SY5Y Aβ (% control) (SY5Y cells [2]) | Neurons/SEAPP-APP Aβ (% control) [3] | Aβ production (in words) [1, 5] | Aβ production (in words) [1, 6] | Aβ uptake (SY5Y cells [4]) |
| --- | --- | --- | --- | --- | --- | --- | --- |
| CCCCCCCCCCCCCCOc1ccc(C(=O)O)o1 [TOFA, 5-(tetradecyloxy)-2-furancarboxylic acid] | mimicked | 40 ± 15 % control | 58 ± 12 % control | 35 ± 4 % control | – | – | – |
| CCOC(=O)[C@@]1(CCCCCCOc2ccc(Cl)cc2)CO1 [Etomoxir] | increased Aβ production | 154 ± 14 % control | 142 ± 14 % control | 158 ± 14 % control | – | – | – |
| C/C=C/C/C=C/CCC(=O)[C@H]1O[C@H]1C(N)=O [Cerulenin, cerulenin] | mimicked | 52 ± 12 % control | 65 ± 9, NS % control | 66 ± 5 % control | – | – | – |
| Peptide YY (3-36): gut-derived hormone affecting daily food intake | – | 92 ± 9, NS % control | 96 ± 7, NS % control | 98 ± 5, NS % control | neither peptide changed Aβ production in a statistically significant way | neither peptide changed Aβ production in a statistically significant way | – |
| methyl-β-cyclodextrin | lowering Aβ | – | – | – | – | – | – |
| B1 | – | – | – | – | – | – | abolished uptake |
| B2 | – | 95 ± 4, NS % control | 96 ± 8, NS % control | 89 ± 12, NS % control | neither peptide changed Aβ production in a statistically significant way | neither peptide changed Aβ production in a statistically significant way | – |
